# Values joined by “and” are separate entries in the source; they are usually repeats but may differ in a detail not shown here. Equal values may be shown once.
# Columns and labels:
# [1] = cited from earlier work; for interconversion in acetone: acetone (and other anhydrous) solvent systems
# [2] = test system: TNF-α; experiment: Inhibition of TNF-α production following LPS-stimulation of human PBMC; type: cell-based; conditions: for IC50: human PBMC, LPS, read-out: IC50 for inhibiting production of TNF-α following LPS-stimulation of PBMC; for secretion of the pro-inflammatory cytokine TNF-α: in vitro
# Excerpt: (§1) The pharmacological properties of 3-(4-amino-1-oxo-1,3-dihydro-isoindol-2-yl)-piperidine-2,6-dione or 4-(amino)-2-(2,6-dioxo-(3-piperidyl))-isoindoline-1,3-dione, including activity comparisons with thalidomide, are characterized in in vitro studies. Studies examined the effects of 3-(4-amino-1-oxo-1,3-dihydro-isoindol-2-yl)-piperidine-2,6-dione, 4-(amino)-2-(2,6-dioxo-(3-piperidyl))-isoindoline-1,3-dione or thalidomide on the production of various cytokines.
# (§2) Inhibitions of TNF-α production following LPS-stimulation of human PBMC and human whole blood by an immunomodulatory compound such as 3-(4-amino-1-oxo-1,3-dihydro-isoindol-2-yl)-piperidine-2,6-dione, 4-(amino)-2-(2,6-dioxo-(3-piperidyl))-isoindoline-1,3-dione or thalidomide were investigated in vitro.
# [3] = test system: TNF-α; experiment: Inhibition of TNF-α production following LPS-stimulation of human whole blood; type: cell-based; conditions: read-out: IC50 for inhibiting production of TNF-α following LPS-stimulation of human whole blood
# Excerpt: as §2
# [4] = test system: IL1β; experiment: LPS-stimulated production of IL1β by PBMC; type: cell-based; conditions: for secretion of the pro-inflammatory cytokine IL1β: in vitro
# Excerpt: as §1
# [5] = test system: IL6; experiment: LPS-stimulated production of IL6 by PBMC; type: cell-based; conditions: for secretion of the pro-inflammatory cytokine IL6: in vitro
# Excerpt: as §1
# [6] = test system: IL10; experiment: Production of anti-inflammatory cytokine IL10 by PBMC; type: cell-based; conditions: for production of the anti-inflammatory cytokine IL10: PBMC; for secretion of the anti-inflammatory cytokine IL10: in vitro
# Excerpt: as §1
# [7] = test system: TNF-α mRNA; experiment: Degradation of TNF-α mRNA; type: cell-based; conditions: in vitro
# Excerpt: as §1
# [8] = test system: T-cells; experiment: Proliferation of T-cells following primary induction by T-cell receptor (TCR) activation; type: cell-based; conditions: in vitro
# Excerpt: as §1
# [9] = test system: IL2; experiment: IL2 production following TCR activation of PBMC; type: cell-based; conditions: in vitro
# Excerpt: as §1
# [10] = test system: IFN-γ; experiment: IFN-γ production following TCR activation of T-cells; type: cell-based; conditions: in vitro
# Excerpt: as §1
# [11] = test system: cardiovascular and respiratory functions; conditions: dog, in vivo; for arterial blood pressure: 2 mg/kg
# Description: In addition, a safety pharmacology study of 3-(4-amino-1-oxo-1,3-dihydro-isoindol-2-yl)-piperidine-2,6-dione or 4-(amino)-2-(2,6-dioxo-(3-piperidyl))-isoindoline-1,3-dione was conducted in dogs. The effects of the compound on cardiovascular and respiratory functions were examined in anesthetized dogs. One group of Beagle dogs (2/sex/group) received three doses of vehicle only and the other received three ascending doses of 2, 10 and 20 mg/kg of the compound. […] The cardiovascular and respiratory changes induced by the compound were minimal at all doses when compared to the vehicle control group.
# [12] = test system: actinic or senile keratoses; experiment: Clinical study in patients with actinic or senile keratoses; type: in vivo, human; conditions: oral 25 mg daily, continuous, baseline vs after eight weeks, FIG. 1
# Description: (§3) 3-(4-Amino-1-oxo-1,3-dihydro-isoindol-2-yl)-piperidine-2,6-dione or 4-(amino)-2-(2,6-dioxo-(3-piperidyl))-isoindoline-1,3-dione is administered in an amount of from about 1 to about 25 mg per day to patients with keratoses for eight weeks, and the responses are subsequently assessed. For example, clinical studies are performed for 3-(4-amino-1-oxo-1,3-dihydro-isoindol-2-yl)-piperidine-2,6-dione in patients with actinic or senile keratoses. Patients receive continuous treatment with the compound at a oral dose of 25 mg daily.
# [13] = test system: wrinkles; experiment: Clinical study in patients with wrinkles; type: in vivo, human; conditions: oral about 5 mg daily, continuous
# Description: as §3, with “to reduce or correct wrinkles of patients.” for “to patients with keratoses for eight weeks, and the responses are subsequently assessed.”, “with wrinkles.” for “with actinic or senile keratoses.”, “of about 5” for “of 25”
# [14] = test system: acne; experiment: Clinical study in acne; type: in vivo, human; conditions: oral about 5 mg daily, continuous
# Description: 3-(4-Amino-1-oxo-1,3-dihydro-isoindol-2-yl)-piperidine-2,6-dione or 4-(amino)-2-(2,6-dioxo-(3-piperidyl))-isoindoline-1,3-dione is administered in an amount of from about 1 to about 25 mg per day to treat acne. Patients receive continuous treatment with the compound at a oral dose of about 5 mg daily.
smiles,measurement,setting,value
"Nc1cccc2c1CN(C1CCC(=O)NC1=O)C2=O (stereo not shown) [Form B, 3-(4-amino-1-oxo-1,3 dihydro-isoindol-2-yl)-piperidene-2,6-dione]",form conversion upon heating,[1]; 175° C. for about five minutes,convert to Form F
same,interconversion in acetone,[1],converts to other forms
same,form stability / interconversion in aqueous solvent systems,[1]; aqueous solvent systems,converts to Form E
"Nc1cccc2c1CN(C1CCC(=O)NC1=O)C2=O (stereo not shown) [3-(4-amino-1-oxo-1,3-dihydro-isoindol-2-yl)-piperidine-2,6-dione]",LPS-stimulated production of TNF-α by PBMC,[2],dose-dependent inhibition
same,IC50,[2],~100 nM and 0.0259 µg/mL
same,secretion of the pro-inflammatory cytokine TNF-α,[2],markedly inhibited
same,IC50,[3],~480 nM and 0.104 µg/mL
same,LPS-stimulated production of IL1β by PBMC,[4],dose-dependent inhibition
same,secretion of the pro-inflammatory cytokine IL1β,[4],markedly inhibited
same,LPS-stimulated production of IL6 by PBMC,[5],dose-dependent inhibition
same,secretion of the pro-inflammatory cytokine IL6,[5],markedly inhibited
same,production of the anti-inflammatory cytokine IL10,[6],increased
same,secretion of the anti-inflammatory cytokine IL10,[6],increased
same,degradation of TNF-α mRNA,[7],enhanced
same,T-cell proliferation,[8],induced
same,IL2 production,[9],induced
same,IFN-γ production,[10],induced
same,"deviations in femoral blood flow, respiratory parameters and QTc interval",[11],not considered treatment-related
same,arterial blood pressure,[11],small transient increase
same,clinical response in patients with actinic or senile keratoses,[12],remarkable clinical benefit
same,clinical response in patients with wrinkles,[13],remarkable clinical benefit
same,acne (size and number of visible cutaneous infections and/or pimples),[14],significant improvements
"O=C1CCC(N2C(=O)c3ccccc3C2=O)C(=O)N1 (stereo not shown) [Thalidomide, thalidomide, reference compound]",IC50,[2],50.1 µg/mL
"Nc1cccc2c1C(=O)N(C1CCC(=O)NC1=O)C2=O (stereo not shown) [4-(amino)-2-(2,6-dioxo(3-piperidyl))-isoindoline-1,3-dione]",LPS-stimulated production of TNF-α by PBMC,[2],dose-dependent inhibition
same,IC50,[2],~24 nM and 0.00655 µg/mL
same,secretion of the pro-inflammatory cytokine TNF-α,[2],markedly inhibited
same,IC50,[3],~25 nM and 0.00683 µg/mL
same,LPS-stimulated production of IL1β by PBMC,[4],dose-dependent inhibition
same,secretion of the pro-inflammatory cytokine IL1β,[4],markedly inhibited
same,LPS-stimulated production of IL6 by PBMC,[5],dose-dependent inhibition
same,secretion of the pro-inflammatory cytokine IL6,[5],markedly inhibited
same,production of the anti-inflammatory cytokine IL10,[6],increased
same,secretion of the anti-inflammatory cytokine IL10,[6],increased
same,degradation of TNF-α mRNA,[7],enhanced
same,T-cell proliferation,[8],induced
same,IL2 production,[9],induced
same,IFN-γ production,[10],induced
same,"deviations in femoral blood flow, respiratory parameters and QTc interval",[11],not considered treatment-related
same,arterial blood pressure,[11],small transient increase
same,acne (size and number of visible cutaneous infections and/or pimples),[14],significant improvements
"Nc1cccc2c1CN(C1CCC(=O)NC1=O)C2=O (stereo not shown) [Form D, 3-(4-amino-1-oxo-1,3 dihydro-isoindol-2-yl)-piperidene-2,6-dione]",form conversion at higher relative humidities,[1],convert to Form B
"Nc1cccc2c1CN(C1CCC(=O)NC1=O)C2=O (stereo not shown) [Form C, 3-(4-amino-1-oxo-1,3 dihydro-isoindol-2-yl)-piperidene-2,6-dione]",hygroscopicity,[1]; below about 85% RH,not hygroscopic
same,form conversion at higher relative humidities,[1],can convert to Form B
"Nc1cccc2c1CN(C1CCC(=O)NC1=O)C2=O (stereo not shown) [Form E, 3-(4-amino-1-oxo-1,3 dihydro-isoindol-2-yl)-piperidene-2,6-dione]",interconversion in THF,[1]; THF solvent system,Form G
same,form conversion upon heating (desolvation),[1]; about 125° C. for about five minutes,convert to Form B
same,interconversion in acetone,[1],convert to Form C

# — US20050214328A1, “Methods of using and compositions comprising immunomodulatory compounds for the treatment and management of skin diseases or disorders” (priority 2004, published 2005)
